biological target: T1, HDAC6 enzyme (Homo sapiens, UniProt Q9UBN7); experiment: HDAC6 enzyme inhibitory activity (HDAC-Glo I/II Assay kit); format: biochemical; conditions: 10 μM; wells without enzyme = 100% inhibition
T1 construct: transducing full length HDAC6 gene into Sf-9 insect cells; GST; purchased SignalChem; host or cells: Sf-9 insect cells
T1 sequence (Q9UBN7 1-1215): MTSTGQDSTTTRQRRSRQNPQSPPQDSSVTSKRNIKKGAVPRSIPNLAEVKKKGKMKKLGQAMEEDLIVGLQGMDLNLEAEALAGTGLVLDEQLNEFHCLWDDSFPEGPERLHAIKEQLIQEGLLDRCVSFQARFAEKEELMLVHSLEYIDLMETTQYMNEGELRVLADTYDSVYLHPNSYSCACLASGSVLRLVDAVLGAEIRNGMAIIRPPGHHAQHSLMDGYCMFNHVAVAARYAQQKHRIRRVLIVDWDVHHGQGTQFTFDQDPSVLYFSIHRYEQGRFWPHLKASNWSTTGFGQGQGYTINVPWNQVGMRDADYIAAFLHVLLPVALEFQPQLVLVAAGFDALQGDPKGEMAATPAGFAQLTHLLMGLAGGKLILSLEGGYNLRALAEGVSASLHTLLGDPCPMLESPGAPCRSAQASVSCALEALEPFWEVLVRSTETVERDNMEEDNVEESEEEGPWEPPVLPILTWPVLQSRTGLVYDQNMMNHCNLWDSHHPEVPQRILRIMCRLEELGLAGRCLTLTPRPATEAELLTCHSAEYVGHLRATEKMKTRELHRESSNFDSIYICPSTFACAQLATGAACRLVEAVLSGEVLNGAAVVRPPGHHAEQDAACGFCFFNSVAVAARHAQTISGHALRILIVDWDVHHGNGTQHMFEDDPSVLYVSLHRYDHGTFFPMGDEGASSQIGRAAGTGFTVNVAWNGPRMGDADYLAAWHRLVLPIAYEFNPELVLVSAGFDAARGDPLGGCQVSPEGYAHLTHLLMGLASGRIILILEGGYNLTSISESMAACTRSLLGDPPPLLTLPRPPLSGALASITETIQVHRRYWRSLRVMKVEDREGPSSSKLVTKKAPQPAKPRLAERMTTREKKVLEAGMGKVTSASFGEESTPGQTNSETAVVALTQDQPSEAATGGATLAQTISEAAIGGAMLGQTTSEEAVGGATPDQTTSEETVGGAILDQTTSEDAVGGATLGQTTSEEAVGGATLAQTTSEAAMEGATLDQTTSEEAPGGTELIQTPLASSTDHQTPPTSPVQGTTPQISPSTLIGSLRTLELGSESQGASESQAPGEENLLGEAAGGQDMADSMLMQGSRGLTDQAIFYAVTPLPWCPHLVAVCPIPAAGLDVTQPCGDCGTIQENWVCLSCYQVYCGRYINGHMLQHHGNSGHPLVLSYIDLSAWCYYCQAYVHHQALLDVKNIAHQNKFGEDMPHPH
In short: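 Sf-9-derived GST-purified full-length HDAC6 + cpd, 60 min RT, 24 mM Tris pH 7.5/0.6 mM glutathione/0.01% Tween-20; add HDAC-Glo substrate-developer, 20 min RT; luminescence. No-enzyme = 100% inhibition.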

O=C1c2cc(-c3nnc(C(F)F)o3)ccc2CN1N1CCC(F)(F)CC1c1ccccc1 (stereo not drawn) [Example 554, 6-(5-(difluoromethyl)-1,3,4-oxadiazol-2-yl)-2-(4,4-difluoro-2-phenylpiperidin-1-yl)isoindolin-1-one (optical isomer)] was tested. Which “HDAC6 inhibitory rate (%) (10 μM)” value did it give?
The value was 100%.

For O=C1c2cc(-c3nnc(C(F)F)o3)ccc2CN1N1CCC(F)(F)CC1c1ccccc1 (stereo not drawn) [Example 555, 6-(5-(difluoromethyl)-1,3,4-oxadiazol-2-yl)-2-(4,4-difluoro-2-phenylpiperidin-1-yl)isoindolin-1-one (optical isomer)], which “HDAC6 inhibitory rate (%) (10 μM)” value is on record?
The value was 100%.

Which “HDAC6 inhibitory rate (%) (10 μM)” value does the source give for O=C1c2cc(-c3nnc(C(F)F)o3)ccc2CN1N1CCC(F)(F)CC1c1cccc(F)c1 (stereo not drawn) [Example 562, 2-(4,4-difluoro-2-(3-fluorophenyl)piperidin-1-yl)-6-(5-(difluoromethyl)-1,3,4-oxadiazol-2-yl)isoindolin-1-one (optical isomer)] here?
Its value is 99%.

For O=C1c2cc(-c3nnc(C(F)F)o3)ccc2CN1N1CCC(F)(F)CC1c1cccc(F)c1 (stereo not drawn) [Example 565, 2-(4,4-difluoro-2-(3-fluorophenyl)piperidin-1-yl)-6-(5-(difluoromethyl)-1,3,4-oxadiazol-2-yl)isoindolin-1-one (optical isomer)], which “HDAC6 inhibitory rate (%) (10 μM)” value is on record?
Its value is 100%.

O=C1c2cc(-c3nnc(C(F)F)o3)ccc2CN1N1CCC(F)(F)CC1c1ccc(F)cc1 (stereo not drawn) [Example 572, 2-(4,4-difluoro-2-(4-fluorophenyl)piperidin-1-yl)-6-(5-(difluoromethyl)-1,3,4-oxadiazol-2-yl)isoindolin-1-one (optical isomer)] was tested. Which “HDAC6 inhibitory rate (%) (10 μM)” value did it give?
Its value is 100%.

With O=C1c2cc(-c3nnc(C(F)F)o3)ccc2CN1N1CCC(F)(F)CC1c1ccc(F)cc1 (stereo not drawn) [Example 573, 2-(4,4-difluoro-2-(4-fluorophenyl)piperidin-1-yl)-6-(5-(difluoromethyl)-1,3,4-oxadiazol-2-yl)isoindolin-1-one (optical isomer)] as the molecule, how does the “HDAC6 inhibitory rate (%) (10 μM)” value read?
Its value is 99%.

Which “HDAC6 inhibitory rate (%) (10 μM)” value does the source give for O=C(NCC(F)(F)F)C1CC(F)(F)CCN1N1Cc2ccc(-c3nnc(C(F)F)o3)cc2C1=O (stereo not drawn) [Example 579, 1-(6-(5-(difluoromethyl)-1,3,4-oxadiazol-2-yl)-1-oxo-1,3-dihydro-2H-isoindol-2-yl)-4,4-difluoro-N-(2,2,2-trifluoroethyl)piperidine-2-carboxamide (Optical Isomer)] here?
The value was 100%.

How did the “HDAC6 inhibitory rate (%) (10 μM)” value turn out when O=C(NCC(F)(F)F)C1CC(F)(F)CCN1N1Cc2ccc(-c3nnc(C(F)F)o3)cc2C1=O (stereo not drawn) [Example 580, 1-(6-(5-(difluoromethyl)-1,3,4-oxadiazol-2-yl)-1-oxo-1,3-dihydro-2H-isoindol-2-yl)-4,4-difluoro-N-(2,2,2-trifluoroethyl)piperidine-2-carboxamide (Optical Isomer)] was run?
The value was 100%.

same assay, conditions: 10 μM; wells without enzyme = 100% inhibition; read-out: HDAC6 inhibitory rate (%) (10 μM)

Cn1cc(C2CCN(CC(F)(F)C(F)(F)F)CC2)c(N2Cc3ccc(-c4nnc(C(F)F)o4)cc3C2=O)n1 [Example 550, 6-(5-(difluoromethyl)-1,3,4-oxadiazol-2-yl)-2-(1-methyl-4-(1-(2,2,3,3,3-pentafluoropropyl)piperidin-4-yl)-1H-pyrazol-3-yl)isoindolin-1-one] was tested. Which inhibition at 10 µM did it give?
Its inhibition at 10 µM is 99%.

For O=C1c2cc(-c3nnc(C(F)F)o3)ccc2CN1N1CCCC1c1cccc(F)c1 (centres unmarked) [Example 553, 6-(5-(difluoromethyl)-1,3,4-oxadiazol-2-yl)-2-(2-(3-fluorophenyl)pyrrolidin-1-yl)isoindolin-1-one], which inhibition at 10 µM is on record?
Its inhibition at 10 µM is 100%.

With Cn1cc(C2CCC(NCC(F)(F)C(F)(F)F)CC2)c(N2Cc3ccc(-c4nnc(C(F)F)o4)cc3C2=O)n1 (centres unmarked) [Example 557, 6-(5-(difluoromethyl)-1,3,4-oxadiazol-2-yl)-2-(1-methyl-4-(4-((2,2,3,3,3-pentafluoropropyl)amino)cyclohexyl)-1H-pyrazol-3-yl)isoindolin-1-one] as the molecule, how does the inhibition at 10 µM read?
Its inhibition at 10 µM is 99%.

O=C1c2cc(-c3nnc(C(F)F)o3)ccc2CN1N1CCC(F)(F)CC1c1cccc(F)c1 (centres unmarked) [Example 560, 2-(4,4-difluoro-2-(3-fluorophenyl)piperidin-1-yl)-6-(5-(difluoromethyl)-1,3,4-oxadiazol-2-yl)isoindolin-1-one] was tested. Which inhibition at 10 µM did it give?
Its inhibition at 10 µM is 100%.

How did the inhibition at 10 µM turn out when O=C1c2cc(-c3nnc(C(F)F)o3)ccc2CN1[C@@H]1CCOC[C@H]1n1nnc2cc(Cl)ccc21 [Example 563, 2-((3S,4R)-3-(5-chloro-1H-benzotriazol-1-yl)tetrahydro-2H-pyran-4-yl)-6-(5-(difluoromethyl)-1,3,4-oxadiazol-2-yl)isoindolin-1-one] was run?
Its inhibition at 10 µM is 100%.

Which inhibition at 10 µM does the source give for O=C(NCC(F)(F)F)C1CC(F)(F)CCN1N1Cc2ccc(-c3nnc(C(F)F)o3)cc2C1=O (centres unmarked) [Example 564, 1-(6-(5-(difluoromethyl)-1,3,4-oxadiazol-2-yl)-1-oxo-1,3-dihydro-2H-isoindol-2-yl)-4,4-difluoro-N-(2,2,2-trifluoroethyl)piperidine-2-carboxamide] here?
Its inhibition at 10 µM is 100%.

O=C1c2cc(-c3nnc(C(F)F)o3)ccc2CN1N1CCC(F)(F)CC1c1ccc(F)cc1 (centres unmarked) [Example 566, 2-(4,4-difluoro-2-(4-fluorophenyl)piperidin-1-yl)-6-(5-(difluoromethyl)-1,3,4-oxadiazol-2-yl)isoindolin-1-one] was tested. Which inhibition at 10 µM did it give?
Its inhibition at 10 µM is 100%.

For Cn1cc(C(=O)NCC(F)(F)F)c(N2Cc3ccc(-c4nnc(C(F)F)o4)cc3C2=O)n1 [Example 567, 3-(6-(5-(difluoromethyl)-1,3,4-oxadiazol-2-yl)-1-oxo-1,3-dihydro-2H-isoindol-2-yl)-1-methyl-N-(2,2,2-trifluoroethyl)-1H-pyrazole-4-carboxamide], which inhibition at 10 µM is on record?
The inhibition at 10 µM was 95%.

Which inhibition at 10 µM does the source give for Cn1cc(C(=O)NCC2CC2)c(N2Cc3ccc(-c4nnc(C(F)F)o4)cc3C2=O)n1 [Example 568, N-(cyclopropylmethyl)-3-(6-(5-(difluoromethyl)-1,3,4-oxadiazol-2-yl)-1-oxo-1,3-dihydro-2H-isoindol-2-yl)-1-methyl-1H-pyrazole-4-carboxamide] here?
Its inhibition at 10 µM is 96%.

How did the inhibition at 10 µM turn out when Cn1cc(C(=O)N2CCC(F)(F)CC2)c(N2Cc3ccc(-c4nnc(C(F)F)o4)cc3C2=O)n1 [Example 569, 6-(5-(difluoromethyl)-1,3,4-oxadiazol-2-yl)-2-(4-((4,4-difluoropiperidin-1-yl)carbonyl)-1-methyl-1H-pyrazol-3-yl)isoindolin-1-one] was run?
Its inhibition at 10 µM is 99%.

With O=C1c2cc(-c3nnc(C(F)F)o3)ccc2CN1N1CCCC1c1ccccn1 (centres unmarked) [Example 570, 6-(5-(difluoromethyl)-1,3,4-oxadiazol-2-yl)-2-(2-(pyridin-2-yl)pyrrolidin-1-yl)isoindolin-1-one] as the molecule, how does the inhibition at 10 µM read?
The inhibition at 10 µM was 100%.

With O=C1c2cc(-c3nnc(C(F)F)o3)ccc2CN1c1cccn2cc(C(F)(F)F)nc12 [Example 571, 6-(5-(difluoromethyl)-1,3,4-oxadiazol-2-yl)-2-(2-(trifluoromethyl)imidazo[1,2-a]pyridin-8-yl)isoindolin-1-one] as the molecule, how does the inhibition at 10 µM read?
The inhibition at 10 µM was 73%.

With O=C1c2cc(-c3nnc(C(F)F)o3)ccc2CN1[C@@H]1CCCC(F)(F)[C@H]1NC(=O)C(F)(F)C(F)F [Example 581, N-((1S,6R)-6-(6-(5-(difluoromethyl)-1,3,4-oxadiazol-2-yl)-1-oxo-1,3-dihydro-2H-isoindol-2-yl)-2,2-difluorocyclohexyl)-2,2,3,3-tetrafluoropropanamide] as the molecule, how does the inhibition at 10 µM read?
Its inhibition at 10 µM is 99%.

With CC(C)(CF)OC(=O)N[C@H]1[C@H](N2Cc3ccc(-c4nnc(C(F)F)o4)cc3C2=O)CCCC1(F)F [Example 582, 1-fluoro-2-methylpropan-2-yl ((1S,6R)-6-(6-(5-(difluoromethyl)-1,3,4-oxadiazol-2-yl)-1-oxo-1,3-dihydro-2H-isoindol-2-yl)-2,2-difluorocyclohexyl)carbamate] as the molecule, how does the inhibition at 10 µM read?
Its inhibition at 10 µM is 100%.

With CC(C)(OC(=O)N[C@H]1[C@H](N2Cc3ccc(-c4nnc(C(F)F)o4)cc3C2=O)CCCC1(F)F)C(F)F [Example 583, 1,1-difluoro-2-methylpropan-2-yl ((1S,6R)-6-(6-(5-(difluoromethyl)-1,3,4-oxadiazol-2-yl)-1-oxo-1,3-dihydro-2H-isoindol-2-yl)-2,2-difluorocyclohexyl)carbamate] as the molecule, how does the inhibition at 10 µM read?
The inhibition at 10 µM was 99%.

— US10435399B2, “HDAC6 inhibitory heterocyclic compound” (TAKEDA PHARMACEUTICAL COMPANY LIMITED, priority 2017, dated 2019)
